The subject of assay [1] is Methylococcus capsulatus CRL M1 NRRL B-11,219. The experiment in a line: conversion of n-alkanes to oxidation products by cell suspensions (Table XVIII). The assay is classed as cell-based. The settings on record: methane-grown cell suspension; pH 7.0.
Description: (§12) ^(a) Cell-suspensions of methanegrown methylotroph microorganisms
(§13) indicated in 0.15 M phosphate buffer, pH 7.0 incubated in the alkanes as
(§14) indicated at 3° C. The oxidation products were determined by g.l.c
Assay [2] deals with Methylobacter capsulatus (Y, NRRL-B-11,201). In words: n-alkanes to secondary alcohols by cell suspensions (Table XVI). Format: cell-based. The note with it: Growth Substrate Methane. The source says:
(§1) Both cell suspensions (particulate fraction) and cell-free particulate fraction of methane-grown methylotroph microorganisms are capable of catalyzing the conversion of C3 -C6 n-alkanes to the corresponding alcohols including secondary alcohols. The conditions for preparing the cell suspensions or the cell-free particulate fractions from methane-grown methylotroph microorganisms is the same as described above. The cell-free particulate fraction requires the presence of oxygen and NADH as an electron donor. […] Tables XVI and XVII show the conversion of C3 -C6 n-alkanes to the corresponding secondary alcohols using cell suspensions and cell-free particulate fractions, respectively, of methane-grown methylotroph microorganisms.
(§2) ^(a) The product secondary alcohols were identified and estimated by […]

For assay [3], the system named is Methylobacterium sp. (CRL-26, NRRL-B-11,208). The description is as above. The assay is classed as cell-based. The note with it: Growth Substrate Methane.
Description: as §1, §2

The test system of assay [4] is Methylosinus sp. (CRL-15, NRRL-B-11,202). The description is as above. The assay is classed as cell-based. The note with it: Growth Substrate Methane.
Description: as §1, §2

Assay [5] concerns Methylosinus trichosporium (OB3b, NRRL-B-11,196). Described as above. Format: cell-based. The settings on record: Growth Substrate Methane.
Description: as §1, §2

Assay [6] relates to Methylococcus capsulatus (Texas, ATCC 19,069). The assay is described as above. Format: cell-based. The note with it: Growth Substrate Methane.
Description: as §1, §2

The test system of assay [7] is Methylomonas sp. (CRL-17, NRRL-B-11,209). The assay is described as above. Format: cell-based. The note with it: Growth Substrate Methane.
Description: as §1, §2

The target in assay [8] is particulate P(40) fraction (Methylosinus trichosporium, UniProt Q50541+Q9KX50+Q9KX51). The experiment in a line: hydroxylation of n-alkanes to secondary alcohols by particulate P(40) fraction (Table XVII). The assay is classed as biochemical, Methylosinus trichosporium (OB3b, NRRL-B-11,196).
Description: as §1
(§3) ^(a) Particulate P(40) fraction was prepared as follows:
(§4) Cellsuspensions at 4° C. were disintegrated through a French
(§5) Pressure cell and centrifuged at 4000 × g. for 15 min. to remove
(§6) unbroken bacteria. The supernatant solution was then centrifuged at 40,00
(§7) × g. for 30 min. at 4° C., yielding the particulate P(40) an
(§8) soluble S(40) fractions. The products were identified by gas
(§9) chromatography and cochromatography with authentic standard.
Target sequence in this assay (Q50541 1-252): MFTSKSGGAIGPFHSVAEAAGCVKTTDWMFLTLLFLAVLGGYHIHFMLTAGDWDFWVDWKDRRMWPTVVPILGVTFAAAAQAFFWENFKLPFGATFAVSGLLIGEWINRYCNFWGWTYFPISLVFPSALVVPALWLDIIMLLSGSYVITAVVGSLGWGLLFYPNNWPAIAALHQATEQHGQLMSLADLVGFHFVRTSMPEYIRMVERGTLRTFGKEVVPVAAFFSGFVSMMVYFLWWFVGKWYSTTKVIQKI
Target sequence in this assay (Q9KX50 40-431): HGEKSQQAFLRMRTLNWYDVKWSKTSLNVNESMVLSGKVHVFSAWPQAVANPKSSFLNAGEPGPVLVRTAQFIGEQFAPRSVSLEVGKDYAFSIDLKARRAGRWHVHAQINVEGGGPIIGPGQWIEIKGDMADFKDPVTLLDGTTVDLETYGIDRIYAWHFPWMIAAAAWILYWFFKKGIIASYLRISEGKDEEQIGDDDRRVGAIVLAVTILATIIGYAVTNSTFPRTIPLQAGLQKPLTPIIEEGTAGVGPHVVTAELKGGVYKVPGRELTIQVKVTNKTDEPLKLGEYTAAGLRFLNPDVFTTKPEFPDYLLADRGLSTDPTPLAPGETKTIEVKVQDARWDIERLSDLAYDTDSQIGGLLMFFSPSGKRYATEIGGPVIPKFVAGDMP
Target sequence in this assay (Q9KX51 1-256): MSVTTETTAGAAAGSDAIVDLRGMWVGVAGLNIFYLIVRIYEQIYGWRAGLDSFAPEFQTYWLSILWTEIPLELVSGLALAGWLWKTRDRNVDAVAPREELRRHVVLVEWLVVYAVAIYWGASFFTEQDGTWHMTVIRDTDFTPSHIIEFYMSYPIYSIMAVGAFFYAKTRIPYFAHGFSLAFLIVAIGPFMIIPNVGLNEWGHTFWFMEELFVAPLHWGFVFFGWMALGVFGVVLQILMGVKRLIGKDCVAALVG

The test system of assay [9] is Methylosinus trichosporium OB3b NRRL B-11,196. In words: conversion of n-alkanes to oxidation products by cell suspensions (Table XVIII). The settings on record: methane-grown cell suspension; pH 7.0. Format: cell-based.
Description: as §12, §13, §14
Assay [10] concerns the target particulate P(40) fraction (Methylococcus capsulatus, UniProt G1UBD1+Q603F1+Q607G3). The experiment in a line: hydroxylation of n-alkanes to secondary alcohols by particulate P(40) fraction (Table XVII). Format: biochemical, Methylococcus capsulatus (Texas, ATCC 19,069).
Description: as §1, §3, §4, §5, §6, §7, §8, §9

In assay [11] the target is particulate P(40) fraction (Methylosinus trichosporium, UniProt Q50541+Q9KX50+Q9KX51). Described as above. The assay is classed as biochemical, Methylosinus sp. (CRL-15, NRRL-B-11,202).
Description: as §1, §3, §4, §5, §6, §7, §8, §9
Target sequence in this assay (Q9KX50 40-431): as the sequence (Q9KX50 40-431) above
Target sequence in this assay (Q50541 1-252): as the sequence (Q50541 1-252) above
Target sequence in this assay (Q9KX51 1-256): as the sequence (Q9KX51 1-256) above

Assay [12] deals with Methylocystis parvus OBBP (NRRL B-11,198). The experiment in a line: n-alkanes to methyl ketones by resting cell suspensions (Table I). The assay is classed as cell-based. The settings on record: cells grown on methane; 30° C. The protocol: (§10) The pH of the nutrient medium was adjusted to 7.0 by the addition of acid or base and 50 ml. samples of the nutrient medium were charged into a plurality of 300 ml. shaker flasks. […] The isolates had been maintained on methanol (0.4% V/V) agar plates or on agar plates under an atmosphere of methane and air having a 1:1 V/V gas ratio which had been transferred every two weeks. For growth on methanol, the medium was supplemented with 0.4% methanol. For growth on methane, the gaseous phase of the inoculated flasks was replaced with a gas mixture comprised of methane and air having a ratio of 1:1 on a V/V basis. The inoculated flasks were sealed air-tight and were incubated on a rotary shaker of orbital radius 2.5 cm. at 250 rpm and at 30° C. for two days until turbidity in the medium had developed. The cells were harvested by centrifugation at 10,000×g. at 4° C. for 30 minutes. The cell pellet was washed twice with a 0.05 M phosphate buffer at a pH of 7.0 (containing 0.02 M MgCl2). The washed cells were then suspended in a 0.05 M phosphate buffer at pH 7.0.
(§11) A 0.5 ml. sample of each washed cell suspension (2 mg. cells) was put into 10 ml. vials at 4° C. which were sealed with a rubber cap. The gaseous phase of the vials was removed with vacuum and then was replaced with a gas mixture of the substrate reactant (i.e., alkane or secondary alcohol) and oxygen at a 1:1 V/V ratio. (In the case of a liquid substrate, i.e., secondary alcohol, 10 μl of the substrate was put in the 10 ml. vials). The vials were then incubated at 30° C. on a rotary shaker at 300 rpm. Samples of product (1-3 μl) were withdrawn periodically with a microsyringe and the products were analyzed by gas chromatography (ionization flame detector column).

In assay [13] the test system is Methylomonas albus BG8 (NRRL B-11,200). Described as above. The note with it: cells grown on methane; 30° C. The assay is classed as cell-based. The method, then: as §10, §11
The subject of assay [14] is Methylosinus sporium 5 (NRRL B-11,197). Described as above. The assay is classed as cell-based. The settings on record: cells grown on methane; 30° C. The protocol:
as §10, §11

Assay [15] concerns Methylomonas methanica SI (NRRL B-11,199). The description is as above. The note with it: cells grown on methane; 30° C. The assay is classed as cell-based. The protocol:
as §10, §11

The subject of assay [16] is Methylosinus trichosporium OB3b (NRRL B-11,196). Described as above. The assay is classed as cell-based. The note with it: cells grown on methane; 30° C. The method, then: as §10, §11
Assay [17] relates to Methylobacter capsulatus Y (NRRL B-11,201). Described as above. The assay is classed as cell-based. The note with it: cells grown on methane; 30° C. The method, then:
as §10, §11

In assay [18] the test system is Methylococcus capsulatus Texas (ATCC 19069). The description is as above. The assay is classed as cell-based. The note with it: cells grown on methane; 30° C. The protocol:
as §10, §11

Assay [19] deals with Methylobacterium organophilum XX. Described as above. The note with it: cells grown on methane; 30° C. Format: cell-based. The method, then:
as §10, §11

Assay [20] concerns particulate P(40) fraction. In words: hydroxylation of n-alkanes to secondary alcohols by particulate P(40) fraction (Table XVII). Format: biochemical, Methylobacterium sp. (CRL-26, NRRL-B-11,222).
Description: as §1, §3, §4, §5, §6, §7, §8, §9

Like-named read-outs stand apart in the source and are kept apart here.

Sequence of particulate P(40) fraction (Methylococcus capsulatus, UniProt G1UBD1+Q603F1+Q607G3) (Q607G3 whole entry): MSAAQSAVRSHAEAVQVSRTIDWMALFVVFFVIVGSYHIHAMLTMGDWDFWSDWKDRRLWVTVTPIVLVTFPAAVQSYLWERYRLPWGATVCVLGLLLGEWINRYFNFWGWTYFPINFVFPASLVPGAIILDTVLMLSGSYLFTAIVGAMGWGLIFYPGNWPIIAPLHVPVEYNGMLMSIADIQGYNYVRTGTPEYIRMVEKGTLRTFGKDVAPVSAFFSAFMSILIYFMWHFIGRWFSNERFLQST
Sequence of particulate P(40) fraction (Methylococcus capsulatus, UniProt G1UBD1+Q603F1+Q607G3) (G1UBD1 33-414): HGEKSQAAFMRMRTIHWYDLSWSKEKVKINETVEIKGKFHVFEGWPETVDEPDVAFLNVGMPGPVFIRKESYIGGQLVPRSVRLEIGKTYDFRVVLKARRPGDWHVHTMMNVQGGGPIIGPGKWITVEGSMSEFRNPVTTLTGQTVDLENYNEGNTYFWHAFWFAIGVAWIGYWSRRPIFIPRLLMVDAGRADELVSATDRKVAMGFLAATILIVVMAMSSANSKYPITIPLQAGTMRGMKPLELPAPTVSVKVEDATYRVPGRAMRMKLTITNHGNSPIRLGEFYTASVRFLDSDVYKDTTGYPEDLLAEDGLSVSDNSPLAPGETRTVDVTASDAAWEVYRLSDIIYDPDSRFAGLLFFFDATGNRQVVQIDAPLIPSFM
Sequence of particulate P(40) fraction (Methylococcus capsulatus, UniProt G1UBD1+Q603F1+Q607G3) (Q603F1 1-260): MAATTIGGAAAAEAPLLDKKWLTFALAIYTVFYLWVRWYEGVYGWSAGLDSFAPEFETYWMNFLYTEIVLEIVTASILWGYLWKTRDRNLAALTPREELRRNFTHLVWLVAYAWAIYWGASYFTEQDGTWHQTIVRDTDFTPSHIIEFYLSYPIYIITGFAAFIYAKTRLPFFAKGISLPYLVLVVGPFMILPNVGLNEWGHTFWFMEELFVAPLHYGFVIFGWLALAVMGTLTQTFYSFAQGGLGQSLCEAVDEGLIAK

On to `CCCC` [n-Butane, n-butane], for which the figures for the “Conversion Rate, product 1-Butanol” value in [1] and in [9] were 0.4 μmoles/hr./mg./protein and 0.3 μmoles/hr./mg./protein, respectively. Also, the “Conversion Rate, product 2-Butanol” value in assay [1] turned out to be 0.5 μmoles/hr./mg./protein; in assay [9] it was 0.4 μmoles/hr./mg./protein. Further, the “Conversion Rate, product 2-Butanone” value is reported as 0.2 μmoles/hr./mg./protein in [1] and 0.1 μmoles/hr./mg./protein in assay [9]. Further, the “Conversion Rate, product n-butanol” value came to 0.2 μmoles/hr./mg./protein in assay [1] and 0.1 μmoles/hr./mg./protein in assay [9]. For the same compound, the “Conversion Rate, n-alkane to corresponding secondary alcohol” value (“Conversion Rate, n-alkane” for short) in assay [2] came to 0.09 μmoles/hr/^5 mg. protein; in assay [3], 0.80 μmoles/hr/^5 mg. protein; in assay [4], 1.2 μmoles/hr/^5 mg. protein; in assay [5] it was 1.5 μmoles/hr/^5 mg. protein; in assay [6], 1.0 μmoles/hr/^5 mg. protein; in assay [7], 1.2 μmoles/hr/^5 mg. protein. Also, the “Conversion Rate, n-alkane” value in assay [8] was 0.79 μmoles/hr/2.0mg. of protein; in assay [10], 0.92 μmoles/hr/2.0mg. of protein; in [11], 0.89 μmoles/hr/2.0mg. of protein; in assay [20] it was 0.61 μmoles/hr/2.0mg. of protein. Further, the “Conversion Rates, n-alkane to corresponding methyl ketone” value (“Conversion Rates, n-alkane” below) in [12] is 1.0 μmoles/hr/mg protein; in assay [13] it was 0.60 μmoles/hr/mg protein; in assay [14] it was 0.58 μmoles/hr/mg protein; in assay [15] it was 0.30 μmoles/hr/mg protein; in assay [16], 1.2 μmoles/hr/mg protein; in assay [17], 1.1 μmoles/hr/mg protein. Further, the “Conversion Rates, n-alkane” value in assay [18] was found to be 0.52 μmoles/hr/mg protein; in [19], 2.0 μmoles/hr/mg protein.

As for `CCCCC` [n-Pentane, n-pentane], the “Conversion Rate, n-alkane” value is reported as 0.01 μmoles/hr/^5 mg. protein in assay [3], 0.06 μmoles/hr/^5 mg. protein in assay [5] and 0.032 μmoles/hr/^5 mg. protein in assay [6]. Further, the “Conversion Rates, n-alkane” value in [12] is listed as 0.51 μmoles/hr/mg protein; in [15] it was 0.28 μmoles/hr/mg protein; in assay [16], 0.72 μmoles/hr/mg protein; in assay [17], 0.63 μmoles/hr/mg protein; in [18], 0.42 μmoles/hr/mg protein; in assay [19] it was 0.58 μmoles/hr/mg protein.

As to `CCC` [n-Propane, n-propane], the “Conversion Rate, product 1-Propanol” value in [1] is given as 0.5 μmoles/hr./mg./protein; in [9], 0.4 μmoles/hr./mg./protein. The entries for the “Conversion Rate, product 2-Propanol” value in assay [1] and in assay [9] were 0.7 μmoles/hr./mg./protein and 0.6 μmoles/hr./mg./protein, respectively. For the same compound, the figures for the “Conversion Rate, product Acetone” value in assay [1] and in [9] were 0.3 μmoles/hr./mg./protein and 0.2 μmoles/hr./mg./protein, respectively. Also, the “Conversion Rate, product Propanol” value in [1] worked out at 0.2 μmoles/hr./mg./protein; in [9], 0.1 μmoles/hr./mg./protein. Also, the “Conversion Rate, n-alkane” value in [2] worked out at 0.20 μmoles/hr/^5 mg. protein; in assay [3] it was 1.4 μmoles/hr/^5 mg. protein; in assay [4], 2.1 μmoles/hr/^5 mg. protein; in [5], 2.5 μmoles/hr/^5 mg. protein; in assay [6], 1.1 μmoles/hr/^5 mg. protein; in assay [7] it was 1.6 μmoles/hr/^5 mg. protein. Moreover, the “Conversion Rate, n-alkane” value is given as 1.32 μmoles/hr/2.0mg. of protein in assay [8], 1.2 μmoles/hr/2.0mg. of protein in [10], 1.5 μmoles/hr/2.0mg. of protein in assay [11] and 1.0 μmoles/hr/2.0mg. of protein in assay [20]. Besides, the “Conversion Rates, n-alkane” value in assay [12] is on record as 1.8 μmoles/hr/mg protein; in assay [13], 2.7 μmoles/hr/mg protein; in assay [14], 2.1 μmoles/hr/mg protein; in assay [15], 2.5 μmoles/hr/mg protein; in assay [16], 1.5 μmoles/hr/mg protein; in [17] it was 1.6 μmoles/hr/mg protein. Besides, the figures for the “Conversion Rates, n-alkane” value in [18] and in assay [19] were 1.2 μmoles/hr/mg protein and 2.8 μmoles/hr/mg protein, respectively.

Values taken from US4250259A, “Microbiological production of ketones from C3 -C6 secondary alcohols” (priority 1979, dated 1981).
